In paper PMC3561128, “Preclinical evaluation of carbon-11 and fluorine-18 sulfonamide derivatives for in vivo radiolabeling of erythrocytes” (EJNMMI Research, 2013):

Test: Biodistribution studies in NMRI mice
Format: in vivo
Conditions: i.v.; for Percentage of ID, blood: blood mass assumed 7% of body mass
Experimental: The biodistribution studies were performed in wild-type NMRI mice with body weights ranging from 30 to 40 g. Mice were intravenously injected with 0.1 MBq of ^18F]-(3) or ^18F]-(5) and 5.5 MBq of ^11C]-(4) or ^11C]-(6) under anesthesia (2% isoflurane in O2 at a flow rate of 1 L/min). The animals were killed by decapitation at 2 min or 60 min p.i. (n = 4/time point for ^18F]-(3), ^11C]-(4), and ^11C]-(6); n = 6 for ^18F]-(5)). Blood was collected, and all major organs were dissected and collected in tarred tubes and were weighed. The radioactivity in each organ was counted using an automated gamma counter, corrected for background radioactivity and expressed as follows: percentage of the injected dose (% ID) or as standardized uptake value (SUV) (SUV = (Counts in tissue per gram of tissue) / (Injected counts per total body mass (g)). For the calculation of total radioactivity in the blood, blood mass was assumed to be 7% of the body mass.

Row | Percentage of ID, brain (2 min p.i.) | Percentage of ID, carcass (2 min p.i.) | Percentage of ID, heart (2 min p.i.) | Percentage of ID, intestines (2 min p.i.) | Percentage of ID, kidneys (2 min p.i.) | Percentage of ID, liver (2 min p.i.) | Percentage of ID, lungs (2 min p.i.) | Percentage of ID, spleen + pancreas (2 min p.i.) | Percentage of ID, stomach (2 min p.i.) | Percentage of ID, urine (2 min p.i.) | SUV, blood (2 min p.i.) | SUV, brain (2 min p.i.) | SUV, heart (2 min p.i.) | SUV, kidneys (2 min p.i.) | SUV, liver (2 min p.i.) | SUV, lungs (2 min p.i.) | SUV, spleen (2 min p.i.) | Percentage of ID, blood (2 min p.i.) | Percentage of ID, brain (60 min p.i.) | Percentage of ID, carcass (60 min p.i.) | SMILES | also measured
1 | 0.7 ± 0.1 % ID | 28.4 ± 2.0 % ID | 0.7 ± 0.2 % ID | 5.2 ± 0.9 % ID | 3.7 ± 0.1 % ID | 6.9 ± 0.4 % ID | 6.3 ± 2.7 % ID | 1.2 ± 0.1 % ID | 1.5 ± 0.3 % ID | 0.3 ± 0.1 % ID | 11.9 ± 1.1 | 0.7 ± 0.1 | 1.6 ± 0.4 | 2.4 ± 0.3 | 1.5 ± 0.1 | 6.2 ± 2.1 | 1.9 ± 0.8 | 83.4 ± 7.7 % ID | 1.5 ± 0.1 % ID | 26.1 ± 1.0 % ID | [11CH3]Oc1ccc(S(N)(=O)=O)cc1 [[^11C]-(6), 4-[^11C]methoxybenzene sulfonamide] | Percentage of ID, heart (60 min p.i.): 0.4 ± 0.1 % ID; Percentage of ID, intestines (60 min p.i.): 19.3 ± 1.0 % ID; Percentage of ID, kidneys (60 min p.i.): 4.1 ± 0.6 % ID; Percentage of ID, liver (60 min p.i.): 6.1 ± 0.5 % ID; Percentage of ID, lungs (60 min p.i.): 3.1 ± 1.4 % ID; Percentage of ID, spleen + pancreas (60 min p.i.): 2.3 ± 0.6 % ID; Percentage of ID, stomach (60 min p.i.): 2.4 ± 0.2 % ID; Percentage of ID, urine (60 min p.i.): 4.8 ± 0.3 % ID; SUV, blood (60 min p.i.): 7.1 ± 0.7; SUV, brain (60 min p.i.): 1.1 ± 0.1; SUV, heart (60 min p.i.): 0.9 ± 0.1; SUV, kidneys (60 min p.i.): 2.4 ± 0.2; SUV, liver (60 min p.i.): 1.4 ± 0.2; SUV, lungs (60 min p.i.): 3.5 ± 1.1; SUV, spleen (60 min p.i.): 2.4 ± 0.4; Percentage of ID, blood (60 min p.i.): 49.7 ± 4.8 % ID
2 | 0.2 ± 0.0 % ID | 17.6 ± 1.5 % ID | 0.5 ± 0.1 % ID | 3.6 ± 1.3 % ID | 8.1 ± 1.3 % ID | 8.4 ± 0.7 % ID | 4.9 ± 2.5 % ID | 0.6 ± 0.1 % ID | 0.7 ± 0.1 % ID | 0.4 ± 0.1 % ID | 12.9 ± 0.8 | 0.2 ± 0.0 | 1.2 ± 0.2 | 4.3 ± 0.7 | 1.5 ± 0.2 | 6.0 ± 1.6 | 0.9 ± 0.1 | 90.5 ± 5.9 % ID | 0.3 ± 0.0 % ID | 21.2 ± 2.8 % ID | [11CH3]Oc1ccc(C(=O)NCCc2ccc(S(N)(=O)=O)cc2)cc1 [[^11C]-(4), 4-[^11C]methoxybenzoyl aminoethylbenzenesulfonamide] | Percentage of ID, heart (60 min p.i.): 0.5 ± 0.1 % ID; Percentage of ID, intestines (60 min p.i.): 12.4 ± 0.8 % ID; Percentage of ID, kidneys (60 min p.i.): 4.1 ± 0.3 % ID; Percentage of ID, liver (60 min p.i.): 9.2 ± 1.1 % ID; Percentage of ID, lungs (60 min p.i.): 4.2 ± 1.1 % ID; Percentage of ID, spleen + pancreas (60 min p.i.): 0.8 ± 0.1 % ID; Percentage of ID, stomach (60 min p.i.): 2.6 ± 0.3 % ID; Percentage of ID, urine (60 min p.i.): 4.4 ± 2.7 % ID; SUV, blood (60 min p.i.): 10.4 ± 1.1; SUV, brain (60 min p.i.): 0.2 ± 0.0; SUV, heart (60 min p.i.): 1.0 ± 0.3; SUV, kidneys (60 min p.i.): 2.5 ± 0.2; SUV, liver (60 min p.i.): 1.9 ± 0.3; SUV, lungs (60 min p.i.): 4.7 ± 0.7; SUV, spleen (60 min p.i.): 1.1 ± 0.2; Percentage of ID, blood (60 min p.i.): 72.5 ± 7.6 % ID
